Experiment: molar heat capacity at saturation pressure
Conditions: Liquid, Vacuum adiabatic calorimetry

CCC [propane]
Conditions	molar heat capacity [J/K/mol]
88.92 K	84.87
91.12 K	84.92
92.73 K	84.92
94.89 K	85.02
96.47 K	84.96
98.58 K	85.12
100.13 K	85.19
102.21 K	85.32
103.73 K	85.36
105.78 K	85.44
107.27 K	85.47
109.28 K	85.76
110.76 K	85.79
112.74 K	85.84
114.19 K	85.97
116.15 K	86.05
117.58 K	86.14
119.51 K	86.16
120.93 K	86.45
122.83 K	86.51
124.23 K	86.53
126.12 K	86.66
127.5 K	86.9
129.36 K	86.88
130.73 K	87.09
132.57 K	87.07
133.93 K	87.31
135.75 K	87.22
137.1 K	87.67
138.9 K	87.5
140.23 K	87.61
142.01 K	87.94
143.34 K	87.91
145.1 K	88.06
146.41 K	88.35
148.16 K	88.33
149.46 K	88.44
151.2 K	88.72
152.48 K	88.71
154.21 K	88.83
155.47 K	89
157.2 K	89.06
158.45 K	89.26
160.15 K	89.66
161.4 K	89.43
163.09 K	90.05
164.34 K	89.53
166 K	90.04
167.25 K	90.06
168.9 K	90.24
170.14 K	90.37
171.79 K	90.38
173.01 K	90.28
174.65 K	90.89
175.86 K	90.91
177.49 K	91.25
178.7 K	91.17
180.31 K	91.67
181.51 K	91.3
183.12 K	91.84
184.31 K	91.75
185.91 K	92.02
187.09 K	92.23
188.68 K	92.09
189.85 K	92.57
191.44 K	92.72
192.61 K	92.88
194.18 K	93.05
195.34 K	93.67
196.91 K	93.56
198.06 K	93.95
199.62 K	94.02
200.76 K	94.12
202.32 K	94.07
203.45 K	94.68
205.01 K	94.36
206.14 K	94.22
207.69 K	94.92
208.8 K	94.54
210.35 K	95.41
211.45 K	95.58
213 K	96.05
214.1 K	96.24
215.65 K	96.38
216.73 K	96.69
218.28 K	97.14
219.35 K	97.4
220.9 K	96.94
221.97 K	97.43
223.51 K	97.28
224.57 K	97.58
226.12 K	98.17
227.16 K	98.39
228.72 K	98.66
229.75 K	98.99
231.31 K	99.11
232.33 K	99.49
233.9 K	99.63
234.9 K	99.41
236.47 K	99.64
237.46 K	100.12
239.04 K	100.21
240.02 K	100.5
241.61 K	100.94
242.57 K	101.2
244.17 K	101.8
245.12 K	101.78
246.72 K	102.66
247.66 K	102.27
249.28 K	103.18
250.2 K	102.98
251.83 K	103.62
252.74 K	103.41
254.37 K	104.07
255.27 K	103.99
256.92 K	104.47
257.8 K	104.55
259.46 K	104.97
260.32 K	105.39
262 K	106
262.85 K	106.36
264.54 K	106.11
265.38 K	106.45
267.08 K	107.17
267.9 K	107.71
267.92 K	107.58
269.62 K	107.64
270.42 K	108.4
270.71 K	108.16
271.49 K	109.25
272.15 K	109.03
272.92 K	109.16
273.04 K	108.7
273.85 K	109.09
274.7 K	109.64
275.38 K	109.29
275.42 K	110.08
276.2 K	109.72
277.24 K	110.22
277.72 K	110.44
277.92 K	110.44
278.57 K	110.68
279.78 K	110.83
280.07 K	110.92
280.41 K	111.44
280.93 K	111.66
282.32 K	111.64
282.41 K	112.19
282.91 K	112.06
283.3 K	112.78
284.77 K	113.05
284.86 K	112.93
285.41 K	112.26
285.68 K	112.86
287.13 K	113.09
287.41 K	113.95
287.91 K	113.12
288.05 K	113.08
289.5 K	114.17
289.95 K	114.64
290.41 K	114.75
290.43 K	114.57
291.86 K	114.95
292.5 K	115.46
292.81 K	115.77
292.93 K	115.51
294.24 K	115.29
295.04 K	116.36
295.21 K	116
295.44 K	116.88
296.61 K	116.56
297.59 K	117.55
297.6 K	116.98
297.96 K	117.85
298.99 K	117.8
300 K	118.27
300.14 K	118.94
300.48 K	117.96
301.38 K	118.85
302.4 K	119.55
302.69 K	119.67
303.01 K	118.38
303.77 K	119.3
304.81 K	120.27
305.25 K	120.48
305.54 K	119.64
306.16 K	120.81
307.23 K	121.32
307.82 K	121.03
308.07 K	121.52
308.57 K	122.04
309.65 K	121.95
310.38 K	122.63
310.62 K	122.47
310.98 K	123.64
312.07 K	123.46
312.95 K	123.93
313.15 K	124.63
313.4 K	124.69
314.51 K	124.14
315.53 K	124.76
315.71 K	125.89
315.83 K	124.99
318.12 K	125.37
318.27 K	126.41
323.24 K	129.01
323.35 K	129.31
325.84 K	130.18
325.93 K	131.3
328.44 K	132.33
328.51 K	133.4
331.06 K	135.04
331.1 K	135.99
333.69 K	136.44
333.7 K	137.68
336.31 K	139.1
336.32 K	139.03
338.93 K	140.95
338.96 K	142.73
341.56 K	144.64
341.61 K	145.97
344.21 K	149.14
344.27 K	148.36

Source: the NIST ThermoML archive (doi:10.1021/je900137r)
